From ChEMBL document CHEMBL3137667, “[Drug-induced liver injury; fourteenth updated edition of the bibliographic database of liver injuries and related drugs]” (Gastroenterol Clin Biol, 2004)

Key:
[1] = human
[2] = human; remark: listed apart in the source
[3] = human, serum
[4] = human; remark: listed apart in the source
[5] = Highest frequency of acute liver toxicity observed during clinical trials, expressed as a percentage. [column '% AIGUE' in source]; settings: human
[6] = human, serum; remark: listed apart in the source
[7] = human; remark: listed apart in the source
[8] = human; remark: listed apart in the source
[9] = human; remark: listed apart in the source
[10] = Proposed mechanism(s) of liver damage. [column 'MEC' in source]; settings: human
[11] = Times to onset, minimal and maximal, observed in the indexed observations. [column 'DELAI' in source]; settings: human
[12] = human; remark: listed apart in the source
[13] = human; remark: listed apart in the source
[14] = Highest frequency of moderate liver toxicity observed during clinical trials, expressed as a percentage. [column '% BIOL' in source]; settings: human
[15] = human; remark: listed apart in the source
[16] = human, serum, 4383 h
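Wherever Hepatotoxicity (association with vascular disease) is given: count of indexed literature references reporting vascular liver injury in humans, e.g. peliosis hepatitis, hepatic veno-occlusive disease or Budd-Chiari syndrome.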
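Wherever Hepatotoxicity (benign tumour) is given: value is a count of indexed literature references citing a benign tumour confirmed by histopathology.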
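Wherever Hepatotoxicity (choleostasis) is given: human cholestatic liver injury, shown by histopathology or by peak ALT or AST elevation over alkaline phosphatase ratio below 2, value counts indexed literature reports.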
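Wherever Hepatotoxicity (chronic liver disease) is given: chronic liver injury confirmed by histopathology or persistently raised serum aminotransferase activity beyond 6 months, value given as the count of indexed literature references.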
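Wherever Hepatotoxicity (cirrhosis) is given: value is a count of indexed literature references reporting cirrhosis confirmed by histopathology.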
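Wherever Hepatotoxicity (cytolytic) is given: human cytolytic liver injury, shown by histopathology or by a ratio above 5 of peak ALT or AST elevation to alkaline phosphatase elevation, value counts indexed references.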
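Wherever Hepatotoxicity (granulomatous hepatitis) is given: value is a count of indexed literature references reporting granulomatous liver disease confirmed by histopathology.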
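Wherever Hepatotoxicity (malignant tumour) is given: malignant tumour confirmed by histopathology, value gives the count of indexed literature references reporting it.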
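Wherever Hepatotoxicity (severe hepatitis) is given: human clinical data: severe hepatitis, meaning potentially life-threatening liver failure or clinically observed cases, the value counts how many indexed literature references report it.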
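Wherever Hepatotoxicity (steatosis) is given: steatosis confirmed by histopathology, value is the count of indexed references.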

| Compound | Hepatotoxicity (steatosis) [1] | Hepatotoxicity (cytolytic) [2] | Hepatotoxicity (moderate) [3] | Hepatotoxicity (association with vascular disease) [4] | Hepatotoxicity (acute) [5] [%] | Hepatotoxicity (acute) [6] | Hepatotoxicity (malignant tumour) [7] | Hepatotoxicity (granulomatous hepatitis) [8] | Hepatotoxicity (benign tumour) [9] | Hepatotoxicity (mechanism) [10] | Hepatotoxicity (time to onset) [11] | Hepatotoxicity (severe hepatitis) [12] | Hepatotoxicity (cirrhosis) [13] | Hepatotoxicity (moderate) [14] [%] | Hepatotoxicity (choleostasis) [15] | Hepatotoxicity (chronic liver disease) [16] | Hepatotoxicity (severe hepatitis) ([12]; Liver) | Hepatotoxicity (moderate) ([14]; Liver) [%] |
| --- | --- | --- | --- | --- | --- | --- | --- | --- | --- | --- | --- | --- | --- | --- | --- | --- | --- | --- |
| CCCc1nn(C)c2c(=O)[nH]c(-c3cc(S(=O)(=O)N4CCN(C)CC4)ccc3OCC)nc12 | 0 | 2 | 0 | 0 | 0 | 2 | 0 | 0 | 0 | Dose-dependant | 2 days - 4 months | 0 | 0 | 0 | 0 | 0 | – | – |
| CC(C)(O)c1ccccc1CC[C@@H](SCC1(CC(=O)O)CC1)c1cccc(/C=C/c2ccc3ccc(Cl)cc3n2)c1 [MONTELUKAST] | 0 | 2 | 3 | 0 | – | – | 0 | 0 | 0 | Allergic | 3 days - 2 years | 0 | 0 | 13.9 | 2 | 0 | – | – |
| COc1c(N2C[C@@H]3CCCN[C@@H]3C2)c(F)cc2c(=O)c(C(=O)O)cn(C3CC3)c12 [MOXIFLOXACIN] | 0 | 0 | 3 | 0 | – | – | 0 | 0 | 0 | Dose-dependant | 26 days | – | 0 | – | 1 | 0 | 0 | 6.9 |
| CCn1cc(C(=O)O)c(=O)c2ccc(C)nc21 [NALIDIXIC ACID] | 0 | 1 | 2 | 0 | 0 | – | 0 | 0 | 0 | Allergic | 2 weeks | 0 | 0 | 0 | 2 | 0 | – | – |
| CNCCNc1ccc2c3c(nn2CCNCCO)-c2c(O)ccc(O)c2C(=O)c13 [TELOXANTRONE] | 0 | 1 | 2 | 0 | 10.5 | 1 | 0 | 0 | 0 | Dose-dependant | – | 0 | 0 | 36.8 | 1 | 0 | – | – |
| CS(=O)(=O)c1ccc([C@@H](O)[C@@H](CO)NC(=O)C(Cl)Cl)cc1 [THIAMPHENICOL] | 0 | 0 | 0 | 0 | 0 | 1 | 0 | 0 | 0 | Allergic | – | 0 | 0 | 0 | 0 | 0 | – | – |
| CN1c2ccccc2C(NCCCCCCC(=O)O)c2ccc(Cl)cc2S1(=O)=O (centres undefined) [TIANEPTINE] | 1 | 3 | 0 | – | 0 | 4 | 0 | 0 | 0 | Reactive metabolite | 1 week - 6 months | 0 | 0 | 0 | 2 | 0 | – | – |
| O=C(Cn1c(=O)sc2ccc(Cl)cc21)N1CCN(CCO)CC1 [TIARAMIDE] | 0 | 1 | 0 | 0 | 0 | 1 | 0 | 0 | 0 | Allergic | – | 0 | 0 | 0 | 1 | 0 | – | – |
| CCOC(=O)c1c(N)sc2c1CCN(Cc1ccccc1)C2 [TINORIDINE] | 0 | 0 | 1 | 0 | 0 | 1 | 0 | 0 | 0 | Allergic | – | 0 | 0 | 0 | 0 | 0 | – | – |
| O[C@H]1[C@H]2[C@H](O)CCCN2C[C@H]1O [TRIDOLGOSIR] | 0 | 0 | 2 | 0 | 10.5 | 1 | 0 | 0 | 0 | Dose-dependant | – | 0 | 0 | 52.6 | 0 | 0 | – | – |
| CN1[C@@H]2CC[C@H]1C[C@@H](OC(=O)c1c[nH]c3ccccc13)C2 [TROPISETRON] | 0 | 1 | 3 | 0 | 4.5 | 1 | 0 | 0 | 0 | Dose-dependant | – | 0 | 0 | 40.9 | 0 | 0 | – | – |
| INTERFERON ALFA-N1 | 0 | 0 | 15 | 0 | 0 | 0 | 0 | 0 | 0 | Dose-dependant | – | 0 | 0 | 42 | 0 | 0 | – | – |
| INTERLEUKIN 6 | 0 | 0 | 9 | 0 | 0 | 2 | 0 | 0 | 0 | Dose-dependant | – | 0 | 0 | 55 | 1 | 0 | – | – |
| PEGASPARGASE | 0 | 0 | 0 | 0 | 7.7 | 2 | 0 | 0 | 0 | Dose-dependant | – | 0 | 0 | 0 | 0 | 0 | – | – |
| PEGLOTICASE | 0 | 0 | 1 | 0 | 0 | 0 | 0 | 0 | 0 | Dose-dependant | – | 0 | 0 | 3.7 | 0 | 0 | – | – |
